Article PMC6273621, “Synthesis and the Biological Activity of Phosphonylated 1,2,3-Triazolenaphthalimide Conjugates” (Molecules, 2016)
Read-outs that look alike come from different tables or passages of the source.

Key:
[1] = test system: human T-lymphocyte (CEM) cells; experiment: Cytostatic activity, CEM cell proliferation; assay type: cell-based; details: CCRF-CEM, 72 h, read-out: IC50 CEM
Description: (§1) All assays were performed in 96-well microtiter plates. To each well were added (5–7.5) × 10^4 tumor cells and a given amount of the test compound. The cells were allowed to proliferate for 48 h (murine leukemia L1210 cells) or 72 h (human lymphocytic CEM and human cervix carcinoma HeLa cells) at 37 °C in a humidified CO2-controlled atmosphere. At the end of the incubation period, the cells were counted in a Coulter counter.

TK− VZV strain = experiment: microbe, parasite or virus in culture; assay type: cell-based, varicella-zoster virus (VZV) strain 07−1; details: Human alphaherpesvirus 3, HEL, read-out: Antiviral Activity EC50, TK− VZV Strain, HEL cell cultures; concentration reducing virus plaque formation by 50%
[2] = test system: murine leukemia (L1210) cells; experiment: Cytostatic activity, L1210 cell proliferation; assay type: cell-based; details: Mus musculus, read-out: IC50 L1210
Description: as §1

TK+ VZV strain = experiment: microbe, parasite or virus in culture; assay type: cell-based, varicella-zoster virus (VZV) strain Oka; details: Human alphaherpesvirus 3, HEL, read-out: Antiviral Activity EC50, TK+ VZV Strain, HEL cell cultures; concentration reducing virus plaque formation by 50%
[3] = test system: human dermal microvascular endothelial HMEC-1 cells; experiment: Cytostatic activity, HMEC-1 cell proliferation; assay type: cell-based
HEL cells = experiment: Cytotoxicity, cell morphology (MCC) in HEL cells; assay type: cell-based, human; details: minimum cytotoxic concentration causing microscopically detectable alteration of cell morphology
Text: The cytotoxicity of the tested compounds toward the uninfected host cells was defined as the minimum cytotoxic concentration (MCC) that causes a microscopically detectable alteration of normal cell morphology.

[4] = test system: human cervix carcinoma cells (HeLa); experiment: Cytostatic activity, HeLa cell proliferation; assay type: cell-based; details: 72 h, read-out: IC50 HeLa
Description: as §1

[5] = test system: L1210, CEM, HeLa and HMEC-1 cells; experiment: Cytostatic activity, overall statement on the tested cell lines; assay type: cell-based; details: naphthalimides devoid of the 1,2,3-triazole unit
Description: as §1

[6] = L1210, cell proliferation, 48 h
[7] = HMEC-1, cell proliferation, read-out: IC50 HMEC-1

Structure (SMILES) | IC50 [1] | EC50 (TK− VZV strain) | melting point | IC50 ([2]; L1210, 48 h) | EC50 (TK+ VZV strain) | IC50 ([3]; HMEC-1, read-out: IC50 HMEC-1) | Cytotoxicity, Cell Morphology (MCC) (HEL cells) | IC50 [4] | IC50 ([1]; cell proliferation) | IC50 [2, 6] | Cytostatic activity (in words) [5] | IC50 [3, 7] | IC50 ([4]; cell proliferation)
CCOP(=O)(OCC)C(O)Cn1cc(CN2C(=O)c3cccc4cccc(c34)C2=O)nn1 (centres unmarked) [Compound 14e, Diethyl 2-{4-[(1,3-Dioxo-1H-benzo[de]isoquinolin-2(3H)-yl)methyl]-1H-1,2,3-triazol-1-yl}-1-hydroxyethylphosphonate] | > 250 µM | > 100 µM | 186 to 188 °C | > 250 µM | 69.9 µM | ≥ 250 µM | >100 μM | ≥ 250 µM | – | – | – | – | –
C#CCN1C(=O)c2cccc3c(Br)ccc(c23)C1=O [Compound 8] | – | – | – | – | – | – | – | – | ≥ 250 µM | ≥ 250 µM | inactive | > 250 µM | > 250 µM
CCOP(=O)(CCOCCn1cc(CN2C(=O)c3cccc4c(Br)ccc(c34)C2=O)nn1)OCC [Compound 15h, Diethyl 2-(2-{4-[(6-Bromo-1,3-dioxo-1H-benzo[de]isoquinolin-2(3H)-yl)methyl]-1H-1,2,3-triazol-1-yl}ethoxy)ethylphosphonate] | 29 ± 11 µM | 70.8 µM | 92 to 93 °C | 26 ± 2 µM | 37.1 µM | 151 µM | >100 μM | 61 ± 15 µM | – | – | – | – | –
CCOP(=O)(CCn1cc(CN2C(=O)c3cccc4c(Br)ccc(c34)C2=O)nn1)OCC [Compound 15b] | 56 ± 20 µM | 38.1 µM | 132 to 134 °C | 14 ± 1 µM | 34.2 µM | 152 ± 1 µM | >100 μM | 62 ± 20 µM | – | – | – | – | –
CN(C)CCN1C(=O)c2cccc3cc(N)cc(c23)C1=O [Amonafide, reference compound] | – | 7.82 µM | – | – | 5.36 µM | – | 20 μM | – | 0.54 ± 0.5 µM | 1 ± 0.4 µM | – | 0.31 µM | 2 ± 1.2 µM
CCOP(=O)(CCOCCn1cc(CN2C(=O)c3cccc4cccc(c34)C2=O)nn1)OCC [Compound 14h, Diethyl 2-(2-{4-[(1,3-Dioxo-1H-benzo[de]isoquinolin-2(3H)-yl)methyl]-1H-1,2,3-triazol-1-yl}ethoxy)ethylphosphonate] | 171 ± 25 µM | 74.6 µM | 156 to 158 °C | 196 ± 32 µM | > 100 µM | 222 ± 39 µM | >100 μM | 154 ± 22 µM | – | – | – | – | –
CCOP(=O)(Cn1cc(CN2C(=O)c3cccc4cc([N+](=O)[O-])cc(c34)C2=O)nn1)OCC [Compound 16a, Diethyl {4-[(5-Nitro-1,3-dioxo-1H-benzo[de]isoquinolin-2(3H)-yl)methyl]-1H-1,2,3-triazol-1-yl}methylphosphonate] | 69 ± 1 µM | 64.5 µM | 147 to 148 °C | 66 ± 7 µM | 39.1 µM | 154 ± 1 µM | >100 μM | 44 ± 19 µM | – | – | – | – | –
CCOP(=O)(CC(O)Cn1cc(CN2C(=O)c3cccc4cc([N+](=O)[O-])cc(c34)C2=O)nn1)OCC (centres unmarked) [Compound 16f, Diethyl 3-{4-[(5-Nitro-1,3-dioxo-1H-benzo[de]isoquinolin-2(3H)-yl)methyl]-1H-1,2,3-triazol-1-yl}-2-hydroxypropylphosphonate] | 71 ± 21 µM | 91.5 µM | 176 to 177 °C | 68 ± 11 µM | 56.7 µM | 155 ± 6 µM | >100 μM | 42 ± 21 µM | – | – | – | – | –
C#CCN1C(=O)c2cccc3cc([N+](=O)[O-])cc(c23)C1=O [Compound 11, 5-Nitro-2-(prop-2-yn-1-yl)-1H-benzo[de]isoquinoline-1,3(2H)-dione] | – | > 100 µM | 213 to 214 °C | – | 48.9 µM | – | 100 μM | – | 229 ± 18 µM | 177 ± 16 µM | inactive | > 250 µM | 109 ± 5 µM
CCOP(=O)(CCCCn1cc(CN2C(=O)c3cccc4cc([N+](=O)[O-])cc(c34)C2=O)nn1)OCC [Compound 16d, Diethyl 4-{4-[(5-Nitro-1,3-dioxo-1H-benzo[de]isoquinolin-2(3H)-yl)methyl]-1H-1,2,3-triazol-1-yl}butylphosphonate] | 95 ± 4 µM | 53.9 µM | 150 to 151 °C | 70 ± 52 µM | 29.9 µM | 126 ± 37 µM | >100 μM | 81 ± 4 µM | – | – | – | – | –
